These results are taken from patent US20140148355A1, “COMPOSITIONS AND METHODS FOR ANALYSIS OF H3K4 METHYLATED CHROMATIN” (UNIVERSITY OF OSLO, priority 2011, published 2014).

This assay concerns H3K4 methylated chromatin. Nature of the assay: Chromatin pulldown (ChPD) with western blot detection. The following applies: antibodies against each of the three H3K4 methylation states; Arabidopsis seedling chromatin. The format is binding. An excerpt:
FIG. 8 Chromatin pulldown (ChPD) using the ASHH2 CW. […] Modified histones were visualised by western blot using antibodies as indicated. Molecular size markers are shown to the right. (B) qPCR with primers for assumed ASHH2 target genes on DNA isolated from seedling chromatin pulled down with GST-CWASHH2. ChPD with GST alone was used as a negative control. Data are shown as percent of input. The Ta3 retrotransposon was used as reference. Standard deviations are shown. (C) ChIP using antibodies against H3K4me1, H3K4me3 and H3K36me3 and primers for the same genes as in (B). Data are shown relative to Ta3. (D) ChPD from wt and ashh2 mutant seedlings as in (A) using antibodies as indicated. ChPD with GST alone was used as a negative control and histone H3 as reference.
Chromatin pull-down (ChPD) was performed using crude chromatin in ChIP dilution buffer (1.1% Triton X-100, 1.2 mM EDTA, 16.7 mM Tris-HCL pH 8, 167 mM NaCl) prepared as for ChIP (Gendrel et al., 2005) incubated with 8 μg GST-CW fusion protein and control proteins (only GST alone, or together with GST-CW-W874A and GST-WIYLD) over night. For western blotting, the pulled down chromatin was washed three times in ChIP dilution buffer, run on a 15% SDS-PAGE and blotted onto a PVDF membrane. […]

Turning to “WIYLD domain of SUVR4: WIYLD domain of the Arabidopsis SET-domain protein SUVR4, GST fusion, negative control [reference compound]”, the “pull down of H3K4 methylated chromatin (western blot signal)” value is “did not pull down”.
